Assay results from PMC10108397 (ACS Medicinal Chemistry Letters, 2023).
One block for each molecule: values may come before it.

Tests used:
phospho-AKT (Ser129) = experiment: Western blot analyses of pAKT and AKT in MDA-MB-231 cells; format: cell-based; conditions: 24 h exposure
MDA-MB-231 cells [1] = experiment: MDA-MB-231 cell viability assay; format: cell-based; conditions: 48 h, up to 10 μM
[2] = system: 13 multiple myeloma cell lines; conditions: cited from earlier work
MDA-MB-231 cells [3] = conditions: 2–10 μM, 24–72 h, WST-1; cited from earlier work
PAMPA = format: in vitro ADME; conditions: correlation
Kinetic solubility = conditions: for measured solubility relative to the dose concentration: actual solubility estimated to be higher than Table 1; for solubility kinetic at 24 h: pH 7.4, kinetic solubility, PBS pH 7.4, 24-hour incubation
DYRKs and HIPKs = experiment: Enzymatic profiling, 8-member DYRK and HIPK panel; format: biochemical; conditions: 1 μM
PIP5K1C = PIP5K1C (Homo sapiens, UniProt O60331); experiment: Enzymatic assay, dose-response; format: biochemical
CK2α and CK2α′ = experiment: CK2 NanoBRET assays

PIP5K1C, sequence (O60331 whole entry): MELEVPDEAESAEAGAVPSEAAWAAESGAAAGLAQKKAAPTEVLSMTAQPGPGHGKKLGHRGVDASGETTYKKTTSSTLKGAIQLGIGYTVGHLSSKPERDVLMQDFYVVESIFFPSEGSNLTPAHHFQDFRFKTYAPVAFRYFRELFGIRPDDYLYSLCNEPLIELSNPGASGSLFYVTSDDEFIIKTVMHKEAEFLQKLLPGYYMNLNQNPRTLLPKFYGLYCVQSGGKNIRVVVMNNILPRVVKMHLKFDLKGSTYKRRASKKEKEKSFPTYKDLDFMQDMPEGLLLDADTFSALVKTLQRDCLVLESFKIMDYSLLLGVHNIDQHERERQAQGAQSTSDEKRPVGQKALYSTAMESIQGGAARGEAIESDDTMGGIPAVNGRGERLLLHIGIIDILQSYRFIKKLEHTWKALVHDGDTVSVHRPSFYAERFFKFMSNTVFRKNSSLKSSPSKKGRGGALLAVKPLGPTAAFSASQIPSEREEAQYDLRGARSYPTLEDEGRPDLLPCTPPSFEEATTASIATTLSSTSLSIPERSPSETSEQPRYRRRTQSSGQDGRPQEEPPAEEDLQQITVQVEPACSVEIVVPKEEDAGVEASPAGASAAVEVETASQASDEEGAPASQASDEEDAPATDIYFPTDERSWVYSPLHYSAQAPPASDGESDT

SMILES: O=C(O)c1ccc2c(c1)nc(Nc1cccc(Cl)c1)c1ccncc12 [CX-4945, 5-(3-chlorophenylamino)benzo[c][2,6]naphthyridine-8-carboxylic acid, reference compound]
AKT phosphorylation (phospho-AKT (Ser129)): dose-dependent inhibition of AKT phosphorylation | total AKT expression (phospho-AKT (Ser129)): no impact on total AKT expression | cytotoxicity (MDA-MB-231 cells [1]): did not exhibit cytotoxicity | antiproliferative activity [2]: low micromolar antiproliferative activity | cell growth (MDA-MB-231 cells [3]): cell growth is inhibited

SMILES: N#Cc1cccc(Nc2nc3cc(C(=O)O)ccc3c3cncnc23)c1 [CX-5011, reference compound]
cytotoxicity (MDA-MB-231 cells [1]): did not exhibit cytotoxicity

SMILES: COc1cccc(CCNc2nc3cc(C(=O)O)ccc3c3cncnc23)c1 [Compound 8]
measured solubility relative to the dose concentration (Kinetic solubility): greater than 75% | solubility kinetic at 24 h (Kinetic solubility): > 100 µM | activity in DYRK and HIPK enzymatic panel (DYRKs and HIPKs): lacked activity against DYRKs and HIPKs

SMILES: O=C(O)c1ccc2c(c1)nc(NCCc1cccc(Cl)c1)c1ncncc12 [Compound 9]
solubility kinetic at 24 h (Kinetic solubility): > 100 µM | activity in DYRK and HIPK enzymatic panel (DYRKs and HIPKs): lacked activity against DYRKs and HIPKs

SMILES: O=C(O)c1ccc2c(c1)nc(Nc1ccc3ccccc3c1)c1ncncc12 [Compound 11]
observation during solubility assessment (Kinetic solubility): insoluble residue

SMILES: O=C(O)c1ccc2c(c1)nc(Nc1ccc(Cl)cc1)c1ncncc12 [Compound 12]
measured solubility relative to the dose concentration (Kinetic solubility): greater than 75%

SMILES: O=C(O)c1ccc2c(c1)nc(Nc1cccc(F)c1)c1ncncc12 [Compound 13]
measured solubility relative to the dose concentration (Kinetic solubility): greater than 75%

SMILES: O=C(O)c1ccc2c(c1)nc(NCCc1cccc(Cl)c1)c1ccncc12 [Compound 18]
measured solubility relative to the dose concentration (Kinetic solubility): greater than 75% | solubility kinetic at 24 h (Kinetic solubility): > 100 µM | activity in DYRK and HIPK enzymatic panel (DYRKs and HIPKs): potent inhibition of just one kinase

SMILES: O=C(O)c1ccc2c(c1)nc(NCCc1cccc(F)c1)c1ccncc12 [Compound 22]
measured solubility relative to the dose concentration (Kinetic solubility): greater than 75% | solubility kinetic at 24 h (Kinetic solubility): > 100 µM

SMILES: O=C(O)c1ccc2c(c1)nc(Nc1cccc(F)c1)c1ccncc12 [Compound 23]
measured solubility relative to the dose concentration (Kinetic solubility): greater than 75%

SMILES: COc1cccc(CCNc2nc3cc(C(=O)O)ccc3c3cnccc23)c1 [Compound 24]
measured solubility relative to the dose concentration (Kinetic solubility): greater than 75% | solubility kinetic at 24 h (Kinetic solubility): > 100 µM | activity in DYRK and HIPK enzymatic panel (DYRKs and HIPKs): potent inhibition of just one kinase

SMILES: COc1cccc(Nc2nc3cc(C(=O)O)ccc3c3cnccc23)c1 [Compound 28, 5-((3-methoxyphenyl)amino)benzo[c][2,6]naphthyridine-8-carboxylic acid]
measured solubility relative to the dose concentration (Kinetic solubility): greater than 75%

Continued, in another order:

human fraction absorbed (%FA) correlated with PAMPA Pe (PAMPA): greater than 80% | measured solubility relative to the dose concentration (Kinetic solubility): greater than 75% | solubility kinetic at 24 h (Kinetic solubility): > 100 µM
SMILES: O=C(O)c1ccc2c(c1)nc(NCc1ccccc1)c1ncncc12 [Compound 2]
AKT phosphorylation (phospho-AKT (Ser129)): dose-dependent inhibition of AKT phosphorylation | total AKT expression (phospho-AKT (Ser129)): no impact on total AKT expression | cytotoxicity (MDA-MB-231 cells [1]): neither compound 2 nor SGC-CK2-1 exhibited significant cytotoxicity | activity in DYRK and HIPK enzymatic panel (DYRKs and HIPKs): lacked activity against DYRKs and HIPKs

human fraction absorbed (%FA) correlated with PAMPA Pe (PAMPA): greater than 80% | PIP5K1C inhibition, enzymatic follow-up (PIP5K1C): did not result in PIP5K1C inhibition
SMILES: O=C(O)c1ccc2c(c1)nc(NCc1ccccc1)c1ncccc12 [Compound 7]
cytotoxicity (MDA-MB-231 cells [1]): did not exhibit cytotoxicity | binding in CK2α and CK2α′ NanoBRET assays (CK2α and CK2α′): not bind either kinase at concentrations up to 10 μM

solubility kinetic at 24 h (Kinetic solubility): > 100 µM
SMILES: O=C(O)c1ccc2c(c1)nc(NCCc1cccc(F)c1)c1ncncc12 [Compound 10]
activity in DYRK and HIPK enzymatic panel (DYRKs and HIPKs): potent inhibition of just one kinase

observation during solubility assessment (Kinetic solubility): insoluble residue
SMILES: O=C(O)c1ccc2c(c1)nc(Nc1ccccc1Cl)c1ncncc12 [Compound 15]

measured solubility relative to the dose concentration (Kinetic solubility): greater than 75%
SMILES: O=C(O)c1ccc2c(c1)nc(Nc1ccccc1)c1ncncc12 [Compound 16]

solubility kinetic at 24 h (Kinetic solubility): > 100 µM
SMILES: O=C(O)c1ccc2c(c1)nc(NCCc1ccccc1)c1ncncc12 [Compound 17]
activity in DYRK and HIPK enzymatic panel (DYRKs and HIPKs): potent inhibition of just one kinase

measured solubility relative to the dose concentration (Kinetic solubility): greater than 75% | solubility kinetic at 24 h (Kinetic solubility): > 100 µM
SMILES: O=C(O)c1ccc2c(c1)nc(NCc1ccccc1)c1ccncc12 [Compound 21]
activity in DYRK and HIPK enzymatic panel (DYRKs and HIPKs): lacked activity against DYRKs and HIPKs

measured solubility relative to the dose concentration (Kinetic solubility): greater than 75%
SMILES: O=C(O)c1ccc2c(c1)nc(Nc1ccccc1)c1ccncc12 [Compound 25]

measured solubility relative to the dose concentration (Kinetic solubility): greater than 75% | solubility kinetic at 24 h (Kinetic solubility): > 100 µM
SMILES: O=C(O)c1ccc2c(c1)nc(NCCc1ccccc1)c1ccncc12 [Compound 27, 5-(phenethylamino)benzo[c][2,6]naphthyridine-8-carboxylic acid]
